According to patent US11453681B2, “Substituted eneoxindoles and uses thereof” (Gilead Sciences, Inc., priority 2019, dated 2022):

biological target: human HPK1 (MAP4K1) (Homo sapiens (Human), UniProt Q92918); experiment: HPK1 IC50 Assay; assay type: biochemical; conditions: recombinant HPK1 kinase domain 0.15 nM, synthetic peptide substrate STK S1, 3 hours at 25° C., time-resolved fluorescence energy transfer; geometric mean of multiple experiments
Protocol: The enzymatic activity of human HPK1 (MAP4K1) was monitored in a biochemical assay in the presence or absence of compounds and using a synthetic peptide substrate. An increase in phosphorylation of the peptide by HPK1 was indicative of its kinase activity.
Recombinant HPK1 kinase domain produced via baculovirus infection of insect cells was obtained from Proteros (Proteros Biostructures #PR-0322) and was pre-activated in the presence of 2 mM ATP (Sigma-Aldrich, cat #GE27-2056-01) and 2 mM magnesium chloride for 16 hours at 4° C. The protein reaction mixture was then loaded to a desalting column (Thermo Fisher Scientific, Cat #89889) to remove excess ATP. HPK1 was eluted with buffer containing 20 mM Tris (2-Amino-2-(hydroxymethyl)propane-1,3-diol) pH 8.0, 150 mM NaCl, 2 mM dithiothreitol and 5% glycerol, and was frozen at −80° C. for later use. HPK1 dual phosphorylation was confirmed by mass spectrometry.
Ten nanoliters of test compounds dissolved in DMSO at various concentrations were dispensed into a 384-well ProxiPlate (PerkinElmer #6008289). Five microliters of a solution of recombinant HPK1 diluted in HPK1 kinase assay buffer (50 mM BES [N,N-Bis(2-hydroxyethyl)-2-aminoethanesulfonic acid], pH 7.0; 10 mM magnesium chloride; 0.01% Triton X-100; 1 mM dithiothreitol; 0.01% bovine serum albumin; 0.1 mM sodium orthovanadate) was added to the compound-containing plate and was incubated for 15 minutes at 25° C. Five microliters of a mixture of ATP (Sigma-Aldrich #A6559) and peptide substrate STK Si (Cisbio #61ST1BLC) diluted in HPK1 kinase assay buffer was then added to start the reaction. Final concentrations were 0.15 nM for HPK1, […], and 1 […]. The reaction mixture was incubated at 25° C. for 3 hours and was stopped with the addition of 10 μl of an EDTA (Ethylenediaminetetraacetic acid)-containing detection buffer (Cisbio #62SDBRDF) supplemented with Europium cryptate-labeled anti-phospho-serine/threonine antibodies (Cisbio #62ST1PEJ) and XL665-labeled streptavidin (Cisbio #610SAXLG). The mixture was incubated for 16 hours at room temperature and peptide phosphorylation was measured by time-resolved fluorescence energy transfer (665 nm/620 nm) on an Envision plate reader (PerkinElmer).
Data in Table 1 were normalized based on positive (staurosporine) and negative (DMSO) controls. Least squares curve fittings were performed using a four-parameter variable slope nonlinear regression model. IC50 is defined as the concentration of compound required to inhibit 50% of maximum phosphorylation. IC50 values from multiple experiments were averaged by geometric mean and the standard deviation was calculated.

Sequence of human HPK1 (MAP4K1) (Q92918 17-274): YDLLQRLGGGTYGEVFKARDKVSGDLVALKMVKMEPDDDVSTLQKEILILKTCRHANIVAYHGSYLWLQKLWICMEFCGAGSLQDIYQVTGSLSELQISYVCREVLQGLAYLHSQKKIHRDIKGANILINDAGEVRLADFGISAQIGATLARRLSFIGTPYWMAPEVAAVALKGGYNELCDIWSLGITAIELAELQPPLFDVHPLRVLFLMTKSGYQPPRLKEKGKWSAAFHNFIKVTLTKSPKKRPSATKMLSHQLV

Structure (SMILES)	IC50 [nM]
Cc1c(-c2cc(Cl)c3c(c2)/C(=C/c2ccc[nH]2)C(=O)N3)cnc2c1NCCO2 [Compound C23, (Z)-3-((1H-pyrrol-2-yl)methylene)-7-chloro-5-(8-methyl-2,3-dihydro-1H-pyrido[2,3-b][1,4]oxazin-7-yl)indolin-2-one]	1.98
Cc1c[nH]c(/C=C2\C(=O)Nc3c(C)cc(-c4cnc5c(c4C)NCCO5)cc32)c1 [Compound C24, (Z)-7-methyl-3-((4-methyl-1H-pyrrol-2-yl)methylene)-5-(8-methyl-2,3-dihydro-1H-pyrido[2,3-b][1,4]oxazin-7-yl)indolin-2-one]	2.93
Cc1c[nH]c(/C=C2\C(=O)Nc3c(F)cc(-c4cnc5c(c4C)NCCO5)cc32)c1 [Compound C25, (Z)-7-fluoro-3-((4-methyl-1H-pyrrol-2-yl)methylene)-5-(8-methyl-2,3-dihydro-1H-pyrido[2,3-b][1,4]oxazin-7-yl)indolin-2-one]	0.05
Cc1c(-c2ccc3c(c2)/C(=C/c2ccn[nH]2)C(=O)N3)cnc2c1NCCO2 [Compound C30, (Z)-3-((1H-pyrazol-5-yl)methylene)-5-(8-methyl-2,3-dihydro-1H-pyrido[2,3-b][1,4]oxazin-7-yl)indolin-2-one]	0.97
Cc1c(-c2ccc3c(c2)/C(=C/c2ncc[nH]2)C(=O)N3)cnc2c1NCCO2 [Compound C31, (Z)-3-((1H-imidazol-2-yl)methylene)-5-(8-methyl-2,3-dihydro-1H-pyrido[2,3-b][1,4]oxazin-7-yl)indolin-2-one]	0.77
Cc1c(-c2ccc3c(c2)/C(=C/c2cnc[nH]2)C(=O)N3)cnc2c1NCCO2 [Compound C32, (Z)-3-((1H-imidazol-5-yl)methylene)-5-(8-methyl-2,3-dihydro-1H-pyrido[2,3-b][1,4]oxazin-7-yl)indolin-2-one]	0.26
Cc1c(-c2ccc3c(c2)/C(=C/c2cnc(C4CC4)[nH]2)C(=O)N3)cnc2c1NCCO2 [Compound C34, (Z)-3-((2-cyclopropyl-1H-imidazol-5-yl)methylene)-5-(8-methyl-2,3-dihydro-1H-pyrido[2,3-b][1,4]oxazin-7-yl)indolin-2-one]	0.13
CC/C(=C1/C(=O)Nc2ccc(-c3cnc4c(c3C)NCCO4)cc21)c1cnc[nH]1 [Compound C36, (Z)-3-(1-(1H-imidazol-5-yl)propylidene)-5-(8-methyl-2,3-dihydro-H-pyrido[2,3-b][1,4]oxazin-7-yl)indolin-2-one]	1
Cc1cc2c(cc1-c1cnc3c(c1C)NCCO3)/C(=C/c1cc3ccncc3[nH]1)C(=O)N2 [Compound C37, (Z)-3-((1H-pyrrolo[2,3-c]pyridin-2-yl)methylene)-6-methyl-5-(8-methyl-2,3-dihydro-1H-pyrido[2,3-b][1,4]oxazin-7-yl)indolin-2-one]	0.69
Cc1cc2c(cc1-c1cnc3c(c1C)NCCO3)/C(=C/c1cc3ncccc3[nH]1)C(=O)N2 [Compound C38, (Z)-3-((1H-pyrrolo[3,2-b]pyridin-2-yl)methylene)-6-methyl-5-(8-methyl-2,3-dihydro-1H-pyrido[2,3-b][1,4]oxazin-7-yl)indolin-2-one]	0.11
Cc1c(-c2ccc3c(c2)/C(=C/c2cc4cnccc4[nH]2)C(=O)N3)ccc2c1NC(=O)CO2 [Compound C39, (Z)-6-(3-((1H-pyrrolo[3,2-c]pyridin-2-yl)methylene)-2-oxoindolin-5-yl)-5-methyl-2H-benzo[b][1,4]oxazin-3(4H)-one]	7.03
Cc1cc2c(cc1-c1cnc3c(c1C)NCCO3)/C(=C/c1cc3cnccc3[nH]1)C(=O)N2 [Compound C40, (Z)-3-((1H-pyrrolo[3,2-c]pyridin-2-yl)methylene)-6-methyl-5-(8-methyl-2,3-dihydro-1H-pyrido[2,3-b][1,4]oxazin-7-yl)indolin-2-one]	0.07
Cc1cc2c(cc1-c1cnc3c(c1)NCCO3)/C(=C/c1cc3cnccc3[nH]1)C(=O)N2 [Compound C41, (Z)-3-((1H-pyrrolo[3,2-c]pyridin-2-yl)methylene)-5-(2,3-dihydro-1H-pyrido[2,3-b][1,4]oxazin-7-yl)-6-methylindolin-2-one]	5.73
Cc1c(-c2cc3c(cc2F)NC(=O)/C3=C\c2cc3ccncc3[nH]2)cnc2c1NCCO2 [Compound C43, (Z)-3-((1H-pyrrolo[2,3-c]pyridin-2-yl)methylene)-6-fluoro-5-(8-methyl-2,3-dihydro-1H-pyrido[2,3-b][1,4]oxazin-7-yl)indolin-2-one]	0.13
Cc1c(-c2cc3c(cc2F)NC(=O)/C3=C\c2cc3ncccc3[nH]2)cnc2c1NCCO2 [Compound C44, (Z)-3-((1H-pyrrolo[3,2-b]pyridin-2-yl)methylene)-6-fluoro-5-(8-methyl-2,3-dihydro-1H-pyrido[2,3-b][1,4]oxazin-7-yl)indolin-2-one]	0.05
Cc1c(-c2cc(F)c3c(c2)/C(=C/c2cc4ccncc4[nH]2)C(=O)N3)cnc2c1NCCO2 [Compound C45, (Z)-3-((1H-pyrrolo[2,3-c]pyridin-2-yl)methylene)-7-fluoro-5-(8-methyl-2,3-dihydro-1H-pyrido[2,3-b][1,4]oxazin-7-yl)indolin-2-one]	0.17
Cc1c(-c2cc(F)c3c(c2)/C(=C/c2cc4ncccc4[nH]2)C(=O)N3)cnc2c1NCCO2 [Compound C46, (Z)-3-((1H-pyrrolo[3,2-b]pyridin-2-yl)methylene)-7-fluoro-5-(8-methyl-2,3-dihydro-1H-pyrido[2,3-b][1,4]oxazin-7-yl)indolin-2-one]	0.05
Cc1c(-c2cc3c(cc2Cl)NC(=O)/C3=C\c2cc3cnccc3[nH]2)cnc2c1NCCO2 [Compound C48, (Z)-3-((1H-pyrrolo[3,2-c]pyridin-2-yl)methylene)-6-chloro-5-(8-methyl-2,3-dihydro-1H-pyrido[2,3-b][1,4]oxazin-7-yl)indolin-2-one]	0.16

Continued by falling IC50, values first:

IC50 [nM]	Structure (SMILES)
9.3	Cc1c(-c2cnc3c(c2)NCCO3)cc(F)c2c1/C(=C/c1cc3cnccc3[nH]1)C(=O)N2 [Compound C42, (Z)-3-((1H-pyrrolo[3,2-c]pyridin-2-yl)methylene)-5-(2,3-dihydro-1H-pyrido[2,3-b][1,4]oxazin-7-yl)-7-fluoro-4-methylindolin-2-one]
5.66	Cc1c(-c2ccc3c(c2)/C(=C/c2ncc[nH]2)C(=O)N3)cnc2c1NC(=O)C1(CC1)O2 [Compound C33, (Z)-7′-(3-((1H-imidazol-2-yl)methylene)-2-oxoindolin-5-yl)-8′-methylspiro[cyclopropane-1,3′-pyrido[2,3-b][1,4]oxazin]-2′(1′H)-one]
1.64	Cc1c(-c2ccc3c(c2)/C(=C/c2cnn[nH]2)C(=O)N3)cnc2c1NCCO2 [Compound C27, (Z)-3-((1H-1,2,3-triazol-5-yl)methylene)-5-(8-methyl-2,3-dihydro-1H-pyrido[2,3-b][1,4]oxazin-7-yl)indolin-2-one]
1.13	Cc1c(-c2cnc3c(c2)/C(=C/c2cc4cnccc4[nH]2)C(=O)N3)cnc2c1NCCO2 [Compound C47, (Z)-3-((1H-pyrrolo[3,2-c]pyridin-2-yl)methylene)-5-(8-methyl-2,3-dihydro-1H-pyrido[2,3-b][1,4]oxazin-7-yl)-1,3-dihydro-2H-pyrrolo[2,3-b]pyridin-2-one]
0.05	Cc1c(-c2cc(F)c3c(c2)/C(=C/c2ccc[nH]2)C(=O)N3)cnc2c1NCCO2 [Compound C26, (Z)-3-((1H-pyrrol-2-yl)methylene)-7-fluoro-5-(8-methyl-2,3-dihydro-1H-pyrido[2,3-b][1,4]oxazin-7-yl)indolin-2-one]
0.05	Cc1c[nH]c(/C=C2\C(=O)Nc3ccc(-c4cnc5c(c4C)NCCO5)cc32)c1 [Compound C28, (Z)-3-((4-methyl-H-pyrrol-2-yl)methylene)-5-(8-methyl-2,3-dihydro-1H-pyrido[2,3-b][1,4]oxazin-7-yl)indolin-2-one]
0.05	Cc1c(-c2ccc3c(c2)/C(=C/c2ccc[nH]2)C(=O)N3)cnc2c1NCCO2 [Compound C29, (Z)-3-((1H-pyrrol-2-yl)methylene)-5-(8-methyl-2,3-dihydro-1H-pyrido[2,3-b][1,4]oxazin-7-yl)indolin-2-one]
0.05	Cc1c(-c2cc(F)c3c(c2)/C(=C/c2cnc(C4CC4)[nH]2)C(=O)N3)cnc2c1NCCO2 [Compound C35, (Z)-3-((2-cyclopropyl-1H-imidazol-5-yl)methylene)-7-fluoro-5-(8-methyl-2,3-dihydro-1H-pyrido[2,3-b][1,4]oxazin-7-yl)indolin-2-one]
